Assay results: patent US20230279025A1, “KRAS G12D INHIBITORS” (Mirati Therapeutics, Inc., priority 2020, published 2023)

Assays:
[1] = target: T1, KRas G12D (Homo sapiens (Human), UniProt P01116, G12D); assay: KRas G12D Binding Assay (TR-FRET displacement of Cy5 labelled tracer); details: GDP-loaded KRAS G12D (amino acids 1:169), 60 minute incubation at 22° C.
Procedure: After a 60 minute incubation at 22° C., the reaction was measured using a PerkinElmer EnVision multimode plate reader via TR-FRET dual wavelength detection, and the percent of control (POC) calculated using a ratiometric emission factor. […] The POC values were fit to a 4-parameter logistic curve and the IC50 value was determined as the concentration where the curve crosses 50 POC.
ND stands for “not determined.”
Target sequence in this assay (P01116 other isoform, or with tags, fused parts or gaps G12D): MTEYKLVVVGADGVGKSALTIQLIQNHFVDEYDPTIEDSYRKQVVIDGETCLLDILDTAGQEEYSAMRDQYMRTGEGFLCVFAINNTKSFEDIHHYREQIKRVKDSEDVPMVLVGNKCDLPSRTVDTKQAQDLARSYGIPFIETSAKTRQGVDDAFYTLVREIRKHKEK

[2] = target: T1, KRas G12D; assay: KRas G12D Surface Plasmon Resonance (SPR) Binding Assay; details: Biacore T200, immobilized biotinylated KRAS protein, 1:1 binding model
Target sequence in this assay (P01116-2 other isoform, or with tags, fused parts or gaps G12D): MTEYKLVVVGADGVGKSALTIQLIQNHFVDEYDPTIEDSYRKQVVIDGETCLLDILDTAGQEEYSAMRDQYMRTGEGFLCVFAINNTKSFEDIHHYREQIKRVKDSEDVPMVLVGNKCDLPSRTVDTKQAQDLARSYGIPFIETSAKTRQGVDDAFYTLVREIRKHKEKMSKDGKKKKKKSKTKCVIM

Compound	IC50 [1]	Kd [2]
OC[C@@H]1CCN1c1nc(N2C[C@H]3CC[C@@H](C2)N3)c2cnc(-c3cc(O)cc4ccccc34)c(F)c2n1 [Example 121, 4-(4-((1R,5S)-3,8-diazabicyclo[3.2.1]octan-3-yl)-8-fluoro-2-((S)-2-(hydroxymethyl)azetidin-1-yl)pyrido[4,3-d]pyrimidin-7-yl)naphthalen-2-ol 2,2,2-trifluoroacetate]	0.204 µM	0.197 µM
Oc1cc(-c2ncc3c(N4C[C@H]5CC[C@@H](C4)N5)nc(OCCc4cccnc4)nc3c2F)c2ccccc2c1 [Example 106, 4-(4-((1R,5S)-3,8-diazabicyclo[3.2.1]octan-3-yl)-8-fluoro-2-(2-(pyridin-3-yl)ethoxy)pyrido[4,3-d]pyrimidin-7-yl)naphthalen-2-ol]	0.156 µM	0.0535 µM
CN(C)CCOc1nc(N2C[C@H]3CC[C@@H](C2)N3)c2cnc(-c3cccc4cccc(Cl)c34)c(F)c2n1 [Example 107, 2-((4-((I R,5S)-3,8-diazabicyclo[3.2.1]octan-3-yl)-7-(8-chloronaphthalen-1-yl)-8-fluoropyrido[4,3-d]pyrimidin-2-yl)oxy)-N,N-dimethylethan-1-amine]	2.12 µM	1.44 µM
Fc1c(-c2cccc3cccc(Cl)c23)ncc2c(N3C[C@H]4CC[C@@H](C3)N4)nc(OC[C@@H]3CCCN3Cc3ccccc3)nc12 [Example 97, 2-(((S)-1-benzylpyrrolidin-2-yl)methoxy)-4-((1R,5S)-3,8-diazabicyclo[3.2.1]octan-3-yl)-7-(8-chloronaphthalen-1-yl)-8-fluoropyrido[4,3-d]pyrimidine]	0.934 µM	5.92 µM
Oc1cc(-c2ncc3c(N4C[C@H]5CC[C@@H](C4)N5)nc(OC4CCC(F)(F)CC4)nc3c2F)c2ccccc2c1 [Example 80, 4-(4-((1R,5S)-3,8-diazabicyclo[3.2.1]octan-3-yl)-2-((4,4-difluorocyclohexyl)oxy)-8-fluoropyrido[4,3-d]pyrimidin-7-yl)naphthalen-2-ol]	0.647 µM	> 500 µM
CN1CCC[C@H]1COc1nc(N2C[C@H]3CC[C@@H](C2)N3)c2cnc(-c3cccc4c3CCCC4)c(F)c2n1 [Example 21, 4-((1R,5S)-3,8-diazabicyclo[3.2.1]octan-3-yl)-8-fluoro-2-(((S)-1-methylpyrrolidin-2-yl)methoxy)-7-(5,6,7,8-tetrahydronaphthalen-1-yl)pyrido[4,3-d]pyrimidine]	0.263 µM	0.448 µM
Fc1c(-c2cccc3cccc(Cl)c23)ncc2c(N3C[C@H]4CC[C@@H](C3)N4)nc(OC3CCc4[nH]ncc4C3)nc12 (stereo partly drawn) [Example 142, 4-((1R,5S)-3,8-diazabicyclo[3.2.1]octan-3-yl)-7-(8-chloronaphthalen-1-yl)-8-fluoro-2-((4,5,6,7-tetrahydro-1H-indazol-5-yl)oxy)pyrido[4,3-d]pyrimidine]	8.85 µM	13.8 µM
OCC(O)CCOc1nc(N2C[C@H]3CC[C@@H](C2)N3)c2cnc(-c3cccc4cccc(Cl)c34)c(F)c2n1 (stereo partly drawn) [Example 57, 4-((4-((1R,5S)-3,8-diazabicyclo[3.2.1]octan-3-yl)-7-(8-chloronaphthalen-1-yl)-8-fluoropyrido[4,3-d]pyrimidin-2-yl)oxy)butane-1,2-diol]	7.29 µM	> 1000 µM
COc1nc(N2C[C@H]3CC[C@@H](C2)N3)c2cnc(-c3cccc4cccc(C)c34)c(F)c2n1 [Example 317, 4-((1R,5S)-3,8-diazabicyclo[3.2.1]octan-3-yl)-8-fluoro-2-methoxy-7-(8-methylnaphthalen-1-yl)pyrido[4,3-d]pyrimidine]	> 10 µM	91.3 µM
CO[C@@H]1C[C@@H](COc2nc(N3C[C@H]4CC[C@@H](C3)N4)c3cnc(-c4cccc5cccc(Cl)c45)c(F)c3n2)N(C)C1 [Example 34, 4-((1R,5S)-3,8-diazabicyclo[3.2.1]octan-3-yl)-7-(8-chloronaphthalen-1-yl)-8-fluoro-2-(((2S,4R)-4-methoxy-1-methylpyrrolidin-2-yl)methoxy)pyrido[4,3-d]pyrimidine]	0.135 µM	0.119 µM
C#Cc1cccc2cccc(-c3ncc4c(N5C[C@H]6CC[C@@H](C5)N6)nc(OCC56CCCN5CCC6)nc4c3F)c12 [Example 179, 4-((1R,5S)-3,8-diazabicyclo[3.2.1]octan-3-yl)-7-(8-ethynylnaphthalen-1-yl)-8-fluoro-2-((hexahydro-1H-pyrrolizin-7a-yl)methoxy)pyrido[4,3-d]pyrimidine]	0.0011 µM	0.0001 µM
CN1CCC[C@H]1COc1nc(N2C[C@H]3CC[C@@H](C2)N3)c2cnc(-c3cccc4c3C(C)(C)CC4)c(F)c2n1 [Example 161, 4-((1R,5S)-3,8-diazabicyclo[3.2.1]octan-3-yl)-7-(3,3-dimethyl-2,3-dihydro-1H-inden-4-yl)-8-fluoro-2-(((S)-1-methylpyrrolidin-2-yl)methoxy)pyrido[4,3-d]pyrimidine bis(2,2,2-trifluoroacetate)]	0.273 µM	0.403 µM
CC1CCc2cccc(-c3ncc4c(N5CC6CCC(C5)N6)nc(OC[C@@H]5CCCN5C)nc4c3F)c21 (stereo partly drawn) [Example 174, 4-((1R,5S)-3,8-diazabicyclo[3.2.1]octan-3-yl)-8-fluoro-7-(3-methyl-2,3-dihydro-1H-inden-4-yl)-2-(((S)-1-methylpyrrolidin-2-yl)methoxy)pyrido[4,3-d]pyrimidine]	0.0639 µM	0.186 µM
[O-][S+]1CCC(Oc2nc(N3C[C@H]4CC[C@@H](C3)N4)c3cnc(-c4cc(O)cc5ccccc45)c(F)c3n2)CC1 (stereo partly drawn) [Example 82, 4-((4-((1R,5S)-3,8-diazabicyclo[3.2.1]octan-3-yl)-8-fluoro-7-(3-hydroxynaphthalen-1-yl)pyrido[4,3-d]pyrimidin-2-yl)oxy)tetrahydro-2H-thiopyran 1-oxide]	0.227 µM	0.215 µM
O=Cc1cc(CCCOc2nc(N3C[C@H]4CC[C@@H](C3)N4)c3cnc(-c4cccc5cccc(Cl)c45)c(F)c3n2)ccc1O [Example 320, 5-(3-((4-((1R,5S)-3,8-diazabicyclo[3.2.1]octan-3-yl)-7-(8-chloronaphthalen-1-yl)-8-fluoropyrido[4,3-d]pyrimidin-2-yl)oxy)propyl)-2-hydroxybenzaldehyde]	> 10 µM	71.6 µM
OCCOc1nc(N2C[C@H]3CC[C@@H](C2)N3)c2cnc(-c3cc(O)cc4ccccc34)c(F)c2n1 [Example 69, 4-(4-((1R,5S)-3,8-diazabicyclo[3.2.1]octan-3-yl)-8-fluoro-2-(2-hydroxyethoxy)pyrido[4,3-d]pyrimidin-7-yl)naphthalen-2-ol]	0.53 µM	0.522 µM
CCC1(N)CN(c2nc(N3C[C@H]4CC[C@@H](C3)N4)c3cnc(-c4cc(O)cc5ccccc45)c(F)c3n2)C1 [Example 126, 4-(2-(3-amino-3-ethylazetidin-1-yl)-4-((1R,5S)-3,8-diazabicyclo[3.2.1]octan-3-yl)-8-fluoropyrido[4,3-d]pyrimidin-7-yl)naphthalen-2-ol]	0.0099 µM	0.0161 µM
COCCCOc1nc(N2C[C@H]3CC[C@@H](C2)N3)c2cnc(-c3cc(O)cc4ccccc34)c(F)c2n1 [Example 68, 4-(4-((1R,5S)-3,8-diazabicyclo[3.2.1]octan-3-yl)-8-fluoro-2-(3-methoxypropoxy)pyrido[4,3-d]pyrimidin-7-yl)naphthalen-2-ol]	0.257 µM	0.293 µM
CC(=O)N1CCC(Oc2nc(N3C[C@H]4CC[C@@H](C3)N4)c3cnc(-c4cc(O)cc5ccccc45)c(F)c3n2)CC1 [Example 78, 1-(4-((4-((1R,5S)-3,8-diazabicyclo[3.2.1]octan-3-yl)-8-fluoro-7-(3-hydroxynaphthalen-1-yl)pyrido[4,3-d]pyrimidin-2-yl)oxy)piperidin-1-yl)ethan-1-one]	0.358 µM	0.367 µM
CN1CCC[C@H]1COc1nc(N2C[C@H]3CC[C@@H](C2)N3)c2cnc(-c3cccc4ccc(F)c(Cl)c34)c(F)c2n1 [Example 44, 4-((1R,5S)-3,8-diazabicyclo[3.2.1]octan-3-yl)-7-(8-chloro-7-fluoronaphthalen-1-yl)-8-fluoro-2-(((S)-1-methylpyrrolidin-2-yl)methoxy)pyrido[4,3-d]pyrimidine]	0.0337 µM	0.0317 µM
Oc1cc(-c2ncc3c(N4C[C@H]5CC[C@@H](C4)N5)nc(N4CCC4)nc3c2F)c2ccccc2c1 [Example 119, 4-(2-(azetidin-1-yl)-4-((1R,5S)-3,8-diazabicyclo[3.2.1]octan-3-yl)-8-fluoropyrido[4,3-d]pyrimidin-7-yl)naphthalen-2-ol 2,2,2-trifluoroacetate]	0.684 µM	0.511 µM
CN1CCC[C@H]1COc1nc(N2C[C@H]3CC[C@@H](C2)N3)c2cnc(-c3cncc4cccc(Cl)c34)c(F)c2n1 [Example 151, 4-((1R,5S)-3,8-diazabicyclo[3.2.1]octan-3-yl)-7-(5-chloroisoquinolin-4-yl)-8-fluoro-2-(((S)-1-methylpyrrolidin-2-yl)methoxy)pyrido[4,3-d]pyrimidine]	0.388 µM	0.448 µM
Oc1cc(-c2ncc3c(N4C[C@H]5CC[C@@H](C4)N5)nc(OCC4(C(F)(F)F)CCCC4)nc3c2F)c2ccccc2c1 [Example 46, 4-(4-((1R,5S)-3,8-diazabicyclo[3.2.1]octan-3-yl)-8-fluoro-2-((1-(trifluoromethyl)cyclopentyl)methoxy)pyrido[4,3-d]pyrimidin-7-yl)naphthalen-2-ol]	0.721 µM	0.798 µM
Cn1ccnc1CCOc1nc(N2C[C@H]3CC[C@@H](C2)N3)c2cnc(-c3cccc4ccc(F)cc34)c(F)c2n1 [Example 112, 4-((1R,5S)-3,8-diazabicyclo[3.2.1]octan-3-yl)-8-fluoro-7-(7-fluoronaphthalen-1-yl)-2-(2-(1-methyl-1H-imidazol-2-yl)ethoxy)pyrido[4,3-d]pyrimidine]	0.718 µM	0.983 µM
